Assay results: publication PMC6274005, “Interaction of Di-2-pyridylketone 2-pyridine Carboxylic Acid Hydrazone and Its Copper Complex with BSA: Effect on Antitumor Activity as Revealed by Spectroscopic Studies” (Molecules, 2016)

Columns and labels:
[1] = target: T1, BSA (Bos taurus, UniProt P02769); assay: Fluorescence resonance energy transfer (FRET) between BSA and bound agent; type: binding, bovine; conditions: for r (distance from bound agent to Trp-213 residue of BSA): FRET; for R0 (critical distance at 50% energy transfer efficiency): K^2 = 2/3, N = 1.336, ф = 0.15
T1 sequence (P02769 25-607): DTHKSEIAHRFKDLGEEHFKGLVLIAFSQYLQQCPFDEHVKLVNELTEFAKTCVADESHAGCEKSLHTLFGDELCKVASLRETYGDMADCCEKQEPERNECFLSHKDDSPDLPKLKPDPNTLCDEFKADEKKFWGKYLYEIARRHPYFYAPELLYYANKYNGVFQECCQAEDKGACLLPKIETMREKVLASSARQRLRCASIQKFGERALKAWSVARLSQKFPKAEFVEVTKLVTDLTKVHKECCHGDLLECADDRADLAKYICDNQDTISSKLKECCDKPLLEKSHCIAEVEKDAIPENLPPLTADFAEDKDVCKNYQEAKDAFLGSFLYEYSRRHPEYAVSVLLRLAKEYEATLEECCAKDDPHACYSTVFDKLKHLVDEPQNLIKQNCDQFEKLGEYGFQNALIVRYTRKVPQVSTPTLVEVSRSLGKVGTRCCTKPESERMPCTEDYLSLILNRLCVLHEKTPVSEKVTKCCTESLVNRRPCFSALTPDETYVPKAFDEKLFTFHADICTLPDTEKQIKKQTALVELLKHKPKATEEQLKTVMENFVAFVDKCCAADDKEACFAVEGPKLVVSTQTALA
Procedure: Further, the distance R between the two Trp residues in BSA and the bound DPPCAH (DPPCAH-Cu) was determined using the fluorescence resonance energy transfer (FRET) method. Generally, FRET occurs whenever the emission spectrum of a fluorophore (donor) overlaps with the absorption spectrum of the bound molecule (acceptor). The efficiency of energy transfer could be used to evaluate the distance between the drug and the Trp213 residue in BSA. The relationship between the distance and efficiency of FRET is described by the following equation: (4) E=1−F/F0=R06/R06+r^6 where, r is the distance between acceptor and donor and, R0 is the critical distance when the energy transfer efficiency is 50%. The value of R0 is calculated using the following equation: (5) R=8.8×10^−25 K^2 N^−4ΦJ where, K^2 is the relative orientation of the transition dipoles of donor and acceptor (K^2 = 2/3 for a random orientation); N is the average refractive index of the medium (N = 1.336); ф is the fluorescence quantum yield of donor (ф = 0.15); J is a factor describing the spectral overlap between the emission spectrum of donor and the absorption spectrum of acceptor. J is calculated using the following equation: (6) J=∑F(λ)ε(λ)λ^4Δλ/∑F(λ)Δλ where, λ is wavelength. To calculate the distance (r), E and J value are required. These values are derived from the fluorescence data and overlapped area between the emission spectrum of BSA and the absorption spectrum of DPPCAH (or DPPCAH-Cu) as shown in Figure 6a (or Figure 6b) after normalization. The experimental value for the efficiency to be used in Equation (4) was estimated by measuring the fluorescence at equal protein-ligand concentration as described in [27].
Absorbance spectrum of DPPCAH and DPPCAH-Cu were recorded on a UV-2450 spectrophotometer (Shimadzu (Suzhou) Co. Ltd., Suzhou, China) within the UV region in the range of 300 to 450 nm. Final concentrations of the agents concentration used for measurements were 10 μM (in Tris-HCl buffer, pH 7.2).
(§1) For the fluorescence spectra, the excitation wavelength was set at 280 nm and the emission spectra were recorded in the range of 300 to 450 nm. Both excitation and emission slit widths were adjusted to 5 nm. In this assay, 4.0 mL of BSA solution at a fixed concentration of 10 × 10^−5 M was accurately added into the quartz cell (1 cm path length), and was manually titrated by successive additions of 10 mM DPPCAH (or DPPCAH-Cu) at intervals of 5 min. Fluorescence emission spectra were then measured on a RF-5301 Spectrofluorophotometer (Shimadzu Scientific Instruments, Kyoto, Japan) at three different temperatures (288, 303, and 310 K). In order to calculate the peak area, the integration of spectra was done in the range of 300 to 450 nm. Synchronous fluorescence spectra were recorded by simultaneously scanning the excitation and emission monochromators, in which a constant wavelength interval was maintained between them. The wavelength interval (Δλ = λem − λex) was fixed individually at 60 nm, at which characteristic information of pertaining to Trp residues was obtained.

[2] = target: T1, BSA; assay: Fluorescence quenching of BSA (Stern-Volmer, binding constants, van't Hoff thermodynamics); design: species or system bovine; conditions: for number of binding sites n per BSA / Ksv (Stern-Volmer dynamic quenching constant) / ΔH of binding to BSA / ΔS of binding to BSA / ΔG of binding to BSA: pH 7.2; for Kq (quenching rate constant of biomolecule): calculated from Ksv with τ0 = 10^−8 s; for shift of BSA fluorescence emission upon addition of the agent: fluorescence titration, CBSA = 1.0 × 10^−5 M, pH 7.2, 288 K; for ΔH of binding to BSA / ΔS of binding to BSA: van't Hoff plot; for ΔG of binding to BSA: ΔG = ΔH − TΔS
Procedure: To investigate the possible mechanism responsible for fluorescence quenching, Stern–Volmer plots were used to interpret the spectral data. The procedure of fluorescence quenching was first assumed a dynamic quenching process. The dynamic quenching constant Ksv and the apparent biomolecular quenching rate constant Kq were calculated using the Stern–Volmer equation: (1) F0/F=1+Ksv[Q]=1+Kqτ0[Q] where, F0 and F are the steady-state fluorescence intensities in the absence and presence of a quencher, respectively; [Q] is the concentration of the quencher; Ksv is the Stern–Volmer dynamic quenching rate constant; τ0 is the fluorescence lifetime of the protein without the quencher, the average life of a fluorescence molecule is 10^−8 s; and Kq is the quenching rate constant of biomolecule. […] To distinguish the quenching model, additional experiments were conducted at different temperatures, as dynamic and static quenching have different temperature dependencies. With an increase in temperature, the Ksv values decrease for static quenching, and increase for dynamic quenching. […] Kq values calculated for DPPCAH and DPPCAH-Cu ranged from 5 × 10^12~7 × 10^12, and >2 × 10^10 L·mol^−1·s^−1, respectively, which further supported the static quenching model.
For the static quenching model, important binding parameters including association constant (Ka) and number of binding sites (n) were calculated from the plots using the equation: (2) log(F0−F/F0)=log Ka+nlog[Q] where, Ka is the binding constant, and n is the number of binding sites per BSA. Ka and n were obtained from the intercept and slope of the curve. […] The number of binding sites n was 1.0418 for DPPCAH and 1.1053 for DPPCAH-Cu, or approximately 1. Thus, the association of one molecule of quencher with one molecule of protein was confirmed. […] Similar results were reported from studies analyzing interaction of eupatorin with BSA [17].
The interaction of small molecules with biomacromolecule involves hydrogen bonds, electrostatic interactions, van der Waals, and hydrophobic forces. In the present study, the nature of the interaction involved in binding was determined based on thermodynamic parameters, namely, ΔH > 0 and ΔS > 0 would imply a hydrophobic interaction, ΔH < 0 and ΔS < 0 hint imply hydrogen bonding and van der Waals interactions, and ΔH< 0 and ΔS > 0 imply electrostatic force interactions. The thermodynamic parameters were obtained using the van’t Hoff Equation (3): (3) lnK=−ΔH/RT+ΔS/R where, K is the binding constant; T is the absolute temperature; and R is the universal gas constant. ΔH and ΔS were obtained from the slope and intercept of the linear van’t Hoff plot (shown in Figure 5). The free energy change (ΔG) was estimated using the following formula: ΔG = ΔH − TΔS
as §1, with “In this assay, 4.0 mL of BSA solution at a fixed concentration of 10 × 10^−5 M was accurately added into the quartz cell (1 cm path length), and was manually titrated by successive additions of 10 mM DPPCAH (or DPPCAH-Cu) at intervals of 5 min.” left out

[3] = 303 K (first value of the printed decrease with increasing temperature)
[4] = 310 K (second value of the printed decrease with increasing temperature)

## Copper complex of di-2-pyridylketone 2-pyridinecarboxylic acid hydrazone [DPPCAH-Cu]
[1]
  r (distance from bound agent to Trp-213 residue of BSA): 2.32 nm
  R0 (critical distance at 50% energy transfer efficiency): 2.7 nm
[1]; listed as BSA-DPPCAH-Cu
  R0 (critical distance at 50% energy transfer efficiency): 2.70 nm
[1]; calculated from spectra
  J (spectral overlap of BSA emission and agent absorption): 1.7e-14 cm^3·L·mol^-1
[2]; 288 K, CBSA = 10 μM
  number of binding sites n per BSA: 1.1053
[2]; 288 K, CBSA = 10 μM, pH 7.2 (10 mM Tris-HCl)
  Ka (association constant with BSA): 6.56 ×10^4
[2]; [3]
  Ksv (Stern-Volmer dynamic quenching constant): 5.47 × 10^4
[2]; [4]
  Ksv (Stern-Volmer dynamic quenching constant): 4.9 × 10^4
[2]; at 288 K, quoted for comparison with docking
  binding energy obtained from fluorescence quenching: -29.7 kJ/mol
[2]
  Kq (quenching rate constant of biomolecule): > 2e+10 L/mol/s
  shift of BSA fluorescence emission upon addition of the agent: blue shift
[2]; 288 K
  ΔH of binding to BSA: -38.57 kJ/mol
  ΔS of binding to BSA: −41.5 J/mol·K
  ΔG of binding to BSA: -26.61 kJ/mol

## O=C(NN=C(c1ccccn1)c1ccccn1)c1ccccn1 [DPPCAH, di-2-pyridylketone-2-pyridine carboxylic acid hydrazone]
[1]
  r (distance from bound agent to Trp-213 residue of BSA): 2.03 nm
  R0 (critical distance at 50% energy transfer efficiency): 2.35 nm
[2]; 288 K, CBSA = 10 μM
  number of binding sites n per BSA: 1.0418
[2]; [3]
  Ksv (Stern-Volmer dynamic quenching constant): 7.0 × 10^4
[2]; [4]
  Ksv (Stern-Volmer dynamic quenching constant): 5.08 × 10^4
[2]
  Kq (quenching rate constant of biomolecule): 5 × 10^12~7 × 10^12 L·mol^−1·s^−1
  shift of BSA fluorescence emission upon addition of the agent: bathochromic red shift
[2]; 288 K
  ΔH of binding to BSA: -46.97 kJ/mol
  ΔS of binding to BSA: −60.0 J/mol·K
  ΔG of binding to BSA: -29.69 kJ/mol
